According to patent US6392045B1, “9-azobicyclo[3.3.1] non-2-ene derivatives as cholinergic ligands at nicotinic ACH receptors” (NeuroSearch A/S, priority 1997, dated 2002):
Counter-ions that a name gives are not always drawn. Like-named read-outs stand apart in the source and are kept apart here.

Tests used:
[1] = target: T1, α4β2 subtype of nicotinic receptors (neuronal nicotinic receptors) (Rattus norvegicus, UniProt P09483+P12390); assay: In vitro inhibition of 3H-epibatidin binding
T1 construct: The forebrain (÷cerebellum) from a male Wistar rat (150-250 g) is homogenized; from tissue; host or cells: rat forebrain (without cerebellum) homogenate (male Wistar)
T1 sequence (P09483 31-630): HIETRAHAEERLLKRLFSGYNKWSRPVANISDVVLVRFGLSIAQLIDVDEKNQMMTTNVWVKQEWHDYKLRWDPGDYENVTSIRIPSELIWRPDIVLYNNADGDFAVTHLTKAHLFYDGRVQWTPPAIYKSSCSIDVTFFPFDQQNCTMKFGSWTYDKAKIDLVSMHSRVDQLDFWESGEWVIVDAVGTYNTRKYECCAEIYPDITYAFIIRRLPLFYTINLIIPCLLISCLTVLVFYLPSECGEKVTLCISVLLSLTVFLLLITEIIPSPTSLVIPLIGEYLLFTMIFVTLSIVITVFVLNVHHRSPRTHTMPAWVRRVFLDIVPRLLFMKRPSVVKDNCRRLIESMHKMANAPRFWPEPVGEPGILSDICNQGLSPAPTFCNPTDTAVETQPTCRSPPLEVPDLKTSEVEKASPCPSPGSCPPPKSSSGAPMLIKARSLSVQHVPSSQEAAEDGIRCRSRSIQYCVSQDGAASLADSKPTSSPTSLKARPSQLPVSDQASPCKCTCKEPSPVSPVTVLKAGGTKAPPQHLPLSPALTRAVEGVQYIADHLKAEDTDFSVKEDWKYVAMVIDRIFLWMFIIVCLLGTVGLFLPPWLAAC
T1 sequence (P12390 25-500): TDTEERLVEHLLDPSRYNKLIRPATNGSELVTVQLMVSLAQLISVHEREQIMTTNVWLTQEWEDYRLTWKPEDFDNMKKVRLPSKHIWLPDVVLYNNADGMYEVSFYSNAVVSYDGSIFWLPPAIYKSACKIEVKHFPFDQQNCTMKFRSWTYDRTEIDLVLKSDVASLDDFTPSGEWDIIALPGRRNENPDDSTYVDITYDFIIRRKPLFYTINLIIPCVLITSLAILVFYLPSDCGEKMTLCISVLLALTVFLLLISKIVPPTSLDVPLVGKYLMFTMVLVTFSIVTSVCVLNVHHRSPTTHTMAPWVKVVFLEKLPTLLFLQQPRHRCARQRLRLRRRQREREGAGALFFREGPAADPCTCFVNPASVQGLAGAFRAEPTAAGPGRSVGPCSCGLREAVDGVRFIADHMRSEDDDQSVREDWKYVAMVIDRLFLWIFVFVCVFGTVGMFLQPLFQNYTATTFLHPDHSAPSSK
Experimental: In Vitro Inhibition of ^3H-epibatidin Binding
The high affinity binding site for ^3H-epibatidin is most certainly binding to the α4β2 subtype of nicotinic receptors. The identity of the low affinity site is still unknown; does it represent a second nicotinic receptor or a second site in the same receptor.
Tissue preparation: Preparations are performed at 0-4° C. unless otherwise indicated. The forebrain (÷cerebellum) from a male Wistar rat (150-250 g) is homogenized for 10-20 sec in 20 ml Tris, HCl (50 mM, pH 7.4) using an Ultra-Turrax homogenizer. The tissue suspension is centrifuged at 27,000×g for 10 min. The supernatant is discarded and the pellet is washed three times by centrifugation at 27,000×g for 10 min in 20 ml fresh buffer, and the final pellet is resuspended in fresh buffer (400 ml per g of original tissue) and used for binding assays.
Assay: Aliquots of 2.0 ml homogenate are added to 0.100 ml of test solution and 0.100 ml of ^3H-epibatidin (0.3 nM, final concentration), mixed and incubated for 60 min at room temperature. Non-specific binding is determined using (−)-nicotine (30 μM, final concentration). After incubation the samples are poured directly onto Whatman GF/C glass fibre filters (presoaked in 0.1% PEI for at least 20 min) under suction and immediately washed with 2×5 ml ice-cold buffer. The amount of radioactivity on the filters is determined by conventional liquid scintillation counting. Specific binding is total binding minus non-specific binding.

[2] = target: nAChR formed by the α7 subunit isoform (Rattus norvegicus, UniProt Q05941); assay: biochemical; format: binding
Sequence of nAChR formed by the α7 subunit isoform (Q05941 23-502): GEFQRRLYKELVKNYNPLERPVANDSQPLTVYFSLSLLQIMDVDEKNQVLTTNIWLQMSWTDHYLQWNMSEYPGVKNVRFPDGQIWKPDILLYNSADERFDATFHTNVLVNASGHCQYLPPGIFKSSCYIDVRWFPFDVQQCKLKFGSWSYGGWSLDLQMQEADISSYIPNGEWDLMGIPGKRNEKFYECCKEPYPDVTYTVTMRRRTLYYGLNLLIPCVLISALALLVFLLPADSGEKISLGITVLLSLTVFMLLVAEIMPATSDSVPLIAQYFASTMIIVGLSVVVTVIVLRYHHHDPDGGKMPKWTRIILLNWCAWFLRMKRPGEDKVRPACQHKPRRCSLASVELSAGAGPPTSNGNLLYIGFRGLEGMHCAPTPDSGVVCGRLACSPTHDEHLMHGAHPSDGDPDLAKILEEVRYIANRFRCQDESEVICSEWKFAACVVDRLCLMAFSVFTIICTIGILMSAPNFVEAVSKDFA

[3] = target: nAChRs comprised of α4 and β2 subunits (Rattus norvegicus, UniProt P09483+P12390); assay: In vitro inhibition of 3H-cytisine binding
Sequence of nAChRs comprised of α4 and β2 subunits (P09483 31-630): as the sequence (P09483 31-630) above
Sequence of nAChRs comprised of α4 and β2 subunits (P12390 25-500): as the sequence (P12390 25-500) above
Experimental: In Vitro Inhibition of ^3H-cytisine Binding
The predominant subtype with high affinity for nicotine is comprised of α4 and β2 subunits. nAChRs of the latter type can selectively be labelled by the nicotine agonist ^3H-cytisine.
Tissue Preparation: Preparations are performed at 0-4° C. unless otherwise indicated. […] The homogenate is centrifuged at 27,000×g for 10 min. The supernatant is discarded and the pellet is resuspended in fresh buffer and centrifuged a second time. The final pellet is resuspended in fresh buffer (35 ml per g of original tissue) and used for binding assays.
Assay: Aliquots of 500 μl homogenate are added to 25 μl of test solution and 25 μl of ^3H-cytisine (1 nM, final concentration), mixed and incubated for 90 min at 2° C. Non-specific binding is determined using (−)-nicotine (100 μM, final concentration). After incubation the samples are added 5 ml of ice-cold buffer and poured directly onto Whatman GF/C glass fibre filters under suction and immediately washed with 2×5 ml ice-cold buffer. The amount of radioactivity on the filters is determined by conventional liquid scintillation counting. Specific binding is total binding minus non-specific binding.

[4] = approximate potency, times that of morphine; cited from earlier work
[5] = read-out: 3H-α-bungarotoxin IC50
[6] = rat forebrain homogenate, 0.3 nM 3H-epibatidin, 60 min at room temperature, read-out: 3H-epibatidin IC50
[7] = rat cerebral cortex homogenate, 1 nM 3H-cytisine, 90 min at 2° C., read-out: 3H-cytisine IC50

CN1C2C=C(c3cccnc3)CC1CCC2.O=C(O)/C=C/C(=O)O (racemic) [Compound 1a, (±)-9-Methyl-3-(3-pyridyl)-9-azabicyclo[3.3.1]non-2-ene Fumaric Acid Salt]
IC50 [1]: 84 nM
IC50 [2, 5]: 500 nM
melting point: 164.5 to 166.5 °C
IC50 [3]: 23 nM

CN1C2C=C(c3cncnc3)CC1CCC2.O=C(O)/C=C/C(=O)O (racemic) [Compound 1b, (±)-9-Methyl-3-(5-pyrimidyl)-9-azabicyclo[3.3.1]non-2-ene Fumaric Acid Salt]
IC50 [1]: 52 nM
IC50 [2, 5]: 1600 nM
melting point: 198 to 202 °C
IC50 [3]: 78 nM

CC(=O)Nc1cccc(C2=CC3CCCC(C2)N3C)c1.CC(=O)O (racemic) [Compound 2c, (±)-3-(3-Acetamidophenyl)-9-methyl-9-azabicyclo[3.3.1]non-2-ene Acetic Acid Salt]
IC50 [1]: 290000 nM
IC50 [2, 5]: 1700 nM
melting point: 59.9 to 63.4 °C
IC50 [3]: 85000 nM

CN1C2C=C(c3cncc(-c4cccnc4)c3)CC1CCC2.O=C(O)/C=C/C(=O)O (racemic) [Compound 2b, (±)-9-Methyl-3-[5-(3-pyridyl)-3-pyridyl]-9-azabicyclo[3.3.1]non-2-ene Fumaric Acid Salt]
IC50 [1]: 240 nM
IC50 [2, 5]: 17000 nM
melting point: 206 to 208 °C
IC50 [3]: 13 nM

CN1C2C=C(c3cccc(N)c3)CC1CCC2.O=C(O)/C=C/C(=O)O (racemic) [Compound 1c, (±)-3-(3-Aminophenyl)-9-methyl-9-azabicyclo[3.3.1]non-2-ene Fumaric Acid Salt]
IC50 [1, 6]: 180 nM
IC50 [2]: 220 nM
melting point: 174 to 180 °C
IC50 [3, 7]: 40 nM

CN1[C@@H]2CCC[C@H]1C[C@H](c1cccnc1)C2 [Compound 8a, Exo-9-Methyl-3-(3-pyridyl)-9-azabicyclo[3.3.1]nonane]
IC50 [1]: 110 nM
IC50 [2, 5]: 1400 nM
melting point: 69 to 70 °C
IC50 [3]: 18 nM

CN1C2C=C(c3cncc(-c4ccccc4)c3)CC1CCC2 (racemic) [Compound 3a, (±)-9-Methyl-3-[3-(5-phenyl)-pyridyl]-9-azabicyclo[3.3.1]non-2-ene Fumaric Acid Salt]
IC50 [1]: 150 nM
IC50 [2, 5]: 4100 nM
IC50 [3]: 25 nM

C1=C(c2cccnc2)CC2CCCC1N2 (racemic) [Compound 11c, (±)-9-H-3-(3-Pyridyl)-9-azabicyclo[3.3.1]oct-2-ene Fumaric Acid Salt]
IC50 [1]: 46 nM
IC50 [2, 5]: 170 nM
IC50 [3, 7]: 4.5 nM

CN1C2C=C(c3ccoc3)CC1CCC2.O=C(O)/C=C/C(=O)O (racemic) [Compound 4c, (±)-3-(3-Furyl)-9-methyl-9-azabicyclo[3.3.1]non-2-ene Fumaric Acid Salt]
IC50 [1]: 5000 nM
IC50 [2, 5]: 660 nM
melting point: 167 to 174 °C
IC50 [3]: 2000 nM

CN1C2C=C(c3cncc(-c4ccc(Oc5ccccc5)cc4)c3)CC1CCC2.O=C(O)/C=C/C(=O)O (racemic) [Compound 4b, (±)-3-[5-(4-Phenoxyphenyl)-3-pyridyl]-9-methyl-9-azabicyclo[3.3.1]non-2-ene Fumaric Acid Salt]
IC50 [1]: 690 nM
IC50 [2, 5]: 17000 nM
melting point: 166 to 168 °C
IC50 [3]: 350 nM

CN1C2C=C(c3cccc([N+](=O)[O-])c3)CC1CCC2.O=C(O)/C=C/C(=O)O (racemic) [Compound 5c, (±)-9-Methyl-3-(3-nitrophenyl)-9-azabicyclo[3.3.1]non-2-ene Fumaric Acid Salt]
IC50 [1]: 3900 nM
IC50 [2, 5]: 2200 nM
melting point: 133 to 144 °C
IC50 [3]: 2700 nM

CCN1C2C=C(c3cccnc3)CC1CCC2.O=C(O)/C=C/C(=O)O (racemic) [Compound 6a, (±)-9-Ethyl-3-(3-pyridyl)-9-azabicyclo[3.3.1]non-2-ene Fumaric Acid Salt]
IC50 [1]: 1700 nM
IC50 [2, 5]: 5800 nM
melting point: 193 to 195 °C
IC50 [3]: 1800 nM

CN1C2C=C(c3cnc4ccccc4c3)CC1CCC2.O=C(O)/C=C/C(=O)O (racemic) [Compound 6b, (±)-3-(3-Quinolinyl)-9-methyl-9-azabicyclo[3.3.1]non-2-ene Fumaric Acid Salt]
IC50 [1, 6]: 8300 nM
IC50 [2]: 350 nM
melting point: 195 to 197 °C
IC50 [3, 7]: 1000 nM

CN1C2C=C(c3cc4ccccc4o3)CC1CCC2 (racemic) [Compound 4a, (±)-3-(2-Benzofuryl)-9-methyl-9-azabicyclo[3.1]non-2-ene Fumaric Acid Salt]
IC50 [1]: > 300000 nM
IC50 [2]: 190 nM
IC50 [3, 7]: > 300000 nM

Clc1ccc(C2CC3CCC2N3)cn1 (stereo not shown) [Epibatidine]
analgesic potency relative to morphine [4]: ~500 times

CC(=O)C1=CC2CCCC(C1)N2C.O=C(O)/C=C/C(=O)O (racemic) [Compound 2d, (±)-3-Acetyl-9-methyl-9-azabicyclo[3.3.1]non-2-ene Fumaric Acid Salt]
IC50 [1]: 1100 nM
IC50 [2, 5]: 4200 nM
melting point: 149 to 151 °C
IC50 [3]: 590 nM
